Experimental data: publication PMC4850295, “Using a Genetically Encoded Sensor to Identify Inhibitors of Toxoplasma gondii Ca^2+ Signaling” (The Journal of Biological Chemistry, 2016)

The molecules below were run against T1, recombinant T. gondii PKG (cGMP-dependent protein kinase; protein kinase G) (Toxoplasma gondii, UniProt Q8MMZ7) (assay: in vitro kinase assay (CycLex PKG assay kit)). Details: 6.76 nM recombinant PKG.
Assay type: biochemical

T1 sequence (Q8MMZ7 whole entry): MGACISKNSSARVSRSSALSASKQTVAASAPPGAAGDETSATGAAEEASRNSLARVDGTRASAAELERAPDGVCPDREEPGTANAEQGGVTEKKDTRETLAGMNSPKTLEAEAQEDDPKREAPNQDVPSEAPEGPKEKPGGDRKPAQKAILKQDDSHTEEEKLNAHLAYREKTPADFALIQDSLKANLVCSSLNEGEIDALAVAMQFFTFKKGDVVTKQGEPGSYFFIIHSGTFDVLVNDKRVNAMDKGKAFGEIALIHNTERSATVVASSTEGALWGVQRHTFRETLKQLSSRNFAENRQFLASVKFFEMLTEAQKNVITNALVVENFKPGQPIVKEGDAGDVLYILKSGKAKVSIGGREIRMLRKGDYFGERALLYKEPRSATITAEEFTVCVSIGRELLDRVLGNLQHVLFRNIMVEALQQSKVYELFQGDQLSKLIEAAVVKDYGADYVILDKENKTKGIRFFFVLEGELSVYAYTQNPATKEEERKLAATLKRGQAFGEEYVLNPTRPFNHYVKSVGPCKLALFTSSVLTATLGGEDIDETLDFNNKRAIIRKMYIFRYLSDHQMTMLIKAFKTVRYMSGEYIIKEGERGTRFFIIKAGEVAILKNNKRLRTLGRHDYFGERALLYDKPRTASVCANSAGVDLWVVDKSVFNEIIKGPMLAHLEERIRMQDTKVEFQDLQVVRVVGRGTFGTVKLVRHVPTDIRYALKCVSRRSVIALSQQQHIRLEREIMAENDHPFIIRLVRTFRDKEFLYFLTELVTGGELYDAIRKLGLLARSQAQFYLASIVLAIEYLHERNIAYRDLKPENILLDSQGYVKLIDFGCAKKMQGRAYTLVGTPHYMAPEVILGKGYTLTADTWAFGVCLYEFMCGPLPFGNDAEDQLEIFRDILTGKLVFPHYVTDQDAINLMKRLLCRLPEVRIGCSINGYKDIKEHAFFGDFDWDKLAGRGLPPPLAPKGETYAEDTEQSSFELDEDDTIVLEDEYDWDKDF

Structure (SMILES) | activity versus inhibitor concentration
CN(C)Cc1ccn2c(-c3ccnc(N)n3)c(-c3ccc(F)cc3)nc2c1 [Cpd2, Compound 2] | presence of increasing concentrations of Inh1, Inh2, or the PKG inhibitor Cpd2

The molecules below were run against T1, recombinant T. gondii PKG (cGMP-dependent protein kinase; protein kinase G) (assay: in vitro kinase assay (CycLex PKG assay kit)). Details: not given.
Assay type: biochemical

Structure (SMILES) | IC50
Fc1ccc(-c2nn3ncccc3c2-c2ccnc(Nc3ccc4c(c3)OCCO4)n2)cc1 [Inh1] | 580 nM
Nc1nc(-c2ccc3c(c2)C(=Cc2cc(Br)c(O)c(Br)c2)C(=O)N3)cs1 [Inh2] | 670 nM

These molecules were tested on T2, GCaMP5-expressing T. gondii (assay: not given). Details: 100 uM zaprinast stimulation; 10 min pretreatment; mean of two replicates; 0.23 h.
T2 construct: whole extracellular parasites expressing GCaMP5 Ca2+ sensor
Set-up: species or system GCaMP5-expressing Toxoplasma gondii, extracellular; GCaMP5 fluorescence (cytosolic Ca2+) after 100 uM zaprinast in compound-pretreated extracellular parasites, background-subtracted, relative to zaprinast alone
Summary of the method: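 Read-out is GCaMP5 calcium fluorescence (ex 485/em 525 nm) taken 4 min after 100 μM zaprinast at 37 °C, following 10 min compound pretreatment at 10 μM in duplicate biological replicates. Values are basal-subtracted fold change versus zaprinast-only controls; parasites held extracellular in Ringer's solution.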

Structure (SMILES) | fold change in fluorescence relative to zaprinast alone
Fc1ccc(-c2nn3ncccc3c2-c2ccnc(Nc3ccc4c(c3)OCCO4)n2)cc1 [Inh1] | -0.1251
Nc1nc(-c2ccc3c(c2)C(=Cc2cc(Br)c(O)c(Br)c2)C(=O)N3)cs1 [Inh2] | 0.1475
OCCCNc1nccc(-c2c(-c3ccc(F)cc3)nn3cc(C(F)(F)F)ccc23)n1 [GW569293X] | 0.8575
NC(=O)c1cccc(Nc2nccc(Nc3cccc(F)c3)n2)c1 [GW759710A] | 1.166
COc1cccc(-c2nc(-c3ccccc3)[nH]c2-c2ccncc2)c1 [SB-610250] | 0.7579
CN1C(=O)C(Nc2ccc(Cl)c(C(=O)O)c2)=C(c2ccc(Cl)cc2)C1=O [SB-404290] | 0.783
Cc1nc(-c2ccccc2)n2nc(NCCCN3CCOCC3)ncc12 [GW874091X] | 1.267
Cc1cc(O)cc(C)c1/C=C/c1cncc(C(=O)OC(C)(C)C)c1 [GW439255X] | 1.014
O=C(Nc1n[nH]c2nc(-c3ccc(O)cc3)c(Br)cc12)C1CC1 [SB-725317] | 1.144
CCn1c(-c2nonc2N)nc2c(N3CCCC3)nccc21 [SB-744941] | 0.961
O=C(NC1CCN(c2ccnc(Nc3ccc(F)cc3)n2)C1)c1cc2ccccc2s1 (stereo not shown) [GSK1379716A] | 1.103
Nc1[nH]nc2ncc(-c3ccccc3)cc12 [SB-517081] | 0.8708
COc1cc(Nc2nccc(-c3cnn4ncccc34)n2)cc(OC)c1 [GW801372X] | 0.4013
COc1cccc(NC(=O)Nc2ccc(C)c(-c3ccc(C(=O)Nc4ccncc4)cc3)c2)c1 [GSK1398474A] | 1.231
CN(C)c1cc2c(Nc3ccc4nc(Cc5ccccc5)[nH]c4c3)ncnc2cn1 [GW301888X] | 1.125
c1ccc(-c2[nH]ncc2Nc2ccnc3ccccc23)nc1 [GW694077X] | 1.237
Fc1cc(Cl)ccc1Nc1ccnc2cc(I)ccc12 [GW551191X] | 1.044
CC(C(=O)NC1CCN(c2ccnc(Nc3ccc(F)cc3)n2)C1)c1ccc(Cl)cc1 (stereo not shown) [GSK1379713A] | 0.7096
CC(C)c1ccc(Nc2nccc(-c3cnn4ncccc34)n2)cc1 [GW805758X] | 0.2516
NS(=O)(=O)c1ccc(N/N=C2\C(=O)Nc3ccc4ncccc4c32)cc1 [GW305178X] | 0.9853
CNC(=O)c1cncc(/C=C/c2c(C)cccc2C)c1 [GW445012X] | 1.157

Structure (SMILES) | fold change in fluorescence relative to zaprinast alone
NC(=O)c1ccc(Oc2nccc(-c3c(-c4ccc(F)cc4)ncn3C3CCNCC3)n2)cc1 [SB-242718] | 1.27
COc1cc(Nc2nccc(Nc3ccc4c(C)n[nH]c4c3)n2)cc(OC)c1OC [GW612286X] | 0.875
Cc1ccc(Nc2ccnc(Nc3ccc4c(c3)CS(=O)(=O)C4)n2)cc1O [GW579362A] | 1.38
O=C(Nc1n[nH]c2cc(-c3cccc(F)c3)ccc12)C1CC1 [SB-735464] | 1.069
CC(C)c1nc(-c2ccc(F)c(NS(=O)(=O)c3c(F)cccc3F)c2)c(-c2ccnc(Nc3ccc(N4CCOCC4)nc3)n2)s1 [GSK1804250A] | 1.361
FC(F)(F)c1ccc(-c2nn3ncccc3c2-c2ccnc(Nc3ccccc3)n2)cc1 [GW828206X] | 0.303
CNC(=O)c1cncc(/C=C/c2ccccc2C)c1 [GW445015X] | 1.264
CCn1c(-c2nonc2N)nc2ccncc21 [SB-738561] | 1.114
COc1cc(C=NNc2ncnc3c2cnn3-c2ccccc2)ccc1O [GW513184X] | 0.5493
CCn1cnc2c(N)ncnc21 [GW345098X] | 1.056
FC(F)(F)c1ccc(-c2nn3ncccc3c2-c2ccnc(Nc3cccc(C(F)(F)F)c3)n2)cc1 [GW828205X] | 0.4128
N#Cc1ccc(CCNc2nccc(-c3cccc(CN4CCNCC4)c3)n2)cc1 [GSK2137462A] | 0.3754
Cc1ccc(C)c(NC(=O)Nc2ccc(C)c(-c3ccc(C(=O)Nc4ccncc4)cc3)c2)c1 [GSK1398473A] | 1.092
NC(=O)Cc1ccccc1Oc1nccc(-c2c(-c3ccc(F)cc3)ncn2C2CCNCC2)n1 [SB-264865] | 1.313
CCCN1CCC(c2ccc(Nc3nc(Nc4cc(F)ccc4C(N)=O)c4cc[nH]c4n3)c(OC)c2)CC1 [GSK1326255A] | 1.826
COc1ccc2cc(-c3c(-c4ccncc4)nc(-c4ccc(S(C)(=O)=O)cc4C)n3C)ccc2c1 [SB-633825] | 0.9532
CCn1c(-c2nonc2N)nc2c(C#CC(C)(C)O)ncc(OC[C@@H]3CCCN3)c21 [GSK614526A] | 1.198
N#Cc1c(NC(=O)c2ccccc2F)sc2c1CCCC2 [GW572738X] | 1.241
Cc1cc(N2Cc3ccccc3C2)nc(Nc2ccc(S(=O)(=O)N3CCOCC3)cc2)n1 [GSK1669917A] | 1.107
Cc1ccc(NC(=O)Nc2cc(C(C)(C)C)nn2-c2ccccc2)cc1 [GSK1014915A] | 0.9452
CCn1c(-c2nonc2N)nc2c(C#CC(C)(C)O)ncc(OCCCCN)c21 [GSK507274A] | 1.063

Same assay, conditions: 0.23 h, 10 µM

Structure (SMILES) | % of control remaining
O=C(Nc1n[nH]c2nnc(-c3cccnc3)cc12)C1CC1 [SB-675259-M] | 1.147
